# Measured values published in BindingDB's records for doi:10.1021/acsmedchemlett.9b00575 (Duke University, 2020).
# pEC50: −log10 of the molar value.
# Legend:
# D(1A) dopamine receptor = D(1A) dopamine receptor (Homo sapiens, UniProt P21728); test: Agonist activity at D1R (unknown origin) transfected in human HEK293T cells assessed as increase in cAMP accumulation incubated for 2 hrs by cAMP Glo-sensor assay
# D(2) dopamine receptor = D(2) dopamine receptor (Homo sapiens, UniProt P14416); test: Agonist activity at C-terminal RLuc8-fused D2 long receptor (unknown origin) transfected in human HEK293T cells co-expressing N-terminal Venus-tagged beta-arrestin2 assessed as increase in beta-arrestin2 recruitment measured after 5 mins in presence of coelenterazine H by BRET assay
# D(2) dopamine receptor, sequence (P14416 whole entry, the tested form may be a part): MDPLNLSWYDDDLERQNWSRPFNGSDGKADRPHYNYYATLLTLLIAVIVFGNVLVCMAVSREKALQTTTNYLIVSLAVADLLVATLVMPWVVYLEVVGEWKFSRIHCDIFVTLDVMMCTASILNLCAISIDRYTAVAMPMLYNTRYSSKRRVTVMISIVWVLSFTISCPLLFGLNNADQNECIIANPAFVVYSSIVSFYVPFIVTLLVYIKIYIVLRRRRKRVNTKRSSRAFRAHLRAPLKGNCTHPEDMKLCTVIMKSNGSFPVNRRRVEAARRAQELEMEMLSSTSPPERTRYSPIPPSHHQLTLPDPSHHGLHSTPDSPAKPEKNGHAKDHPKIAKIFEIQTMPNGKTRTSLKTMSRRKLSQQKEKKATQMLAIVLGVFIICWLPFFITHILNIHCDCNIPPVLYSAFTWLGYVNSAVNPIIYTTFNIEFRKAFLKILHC
# D(1A) dopamine receptor, sequence (P21728 whole entry, the tested form may be a part): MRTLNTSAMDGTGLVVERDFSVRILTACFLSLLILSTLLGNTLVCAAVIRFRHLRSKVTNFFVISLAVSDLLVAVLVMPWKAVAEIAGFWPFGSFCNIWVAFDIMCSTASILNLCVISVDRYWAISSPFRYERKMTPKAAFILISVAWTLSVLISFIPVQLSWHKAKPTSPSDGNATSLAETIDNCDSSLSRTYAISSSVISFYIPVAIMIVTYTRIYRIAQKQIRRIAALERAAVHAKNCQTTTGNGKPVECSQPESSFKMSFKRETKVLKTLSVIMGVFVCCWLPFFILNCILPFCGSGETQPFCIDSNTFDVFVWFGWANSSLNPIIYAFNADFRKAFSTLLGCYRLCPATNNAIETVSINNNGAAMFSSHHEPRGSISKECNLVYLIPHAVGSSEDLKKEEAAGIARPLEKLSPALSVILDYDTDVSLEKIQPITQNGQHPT
Compound,pEC50 (D(1A) dopamine receptor),pEC50 (D(2) dopamine receptor)
CN1CCc2cccc3c2[C@H]1Cc1ccc2c(c1-3)OCO2,7.00,–
CC(=O)Oc1c(Br)cc2c(c1OC(C)=O)-c1cccc3c1[C@@H](C2)N(C)CC3,–,5.90
